# Patent US20240307342A1, “Treatment of the adverse cardiovascular effects of cannabinoids” (GreenStone Biosciences, Inc., priority 2022, published 2024)
# Where two headings read alike, the source gives them in different places.
# Experiments:
# hiPSC-ECs [1] = assay: oxidative stress and inflammation readouts in hiPSC-ECs; format: cell-based, human; settings: for expression of proinflammatory cytokines and chemokines / inflammation-related genes / TLR4 expression / expression of ROS-related genes NOX1 and iNOS / mRNA expression of antioxidant-related genes (SOD1, SOD2, CAT, GPX1): Δ9-THC alone; for expression of proinflammatory cytokines and chemokines / inflammation-related genes: genistein or AM6545 = reversal of the Δ9-THC-induced effect; for TLR4 expression / expression of ROS-related genes NOX1 and iNOS / mRNA expression of antioxidant-related genes (SOD1, SOD2, CAT, GPX1): genistein = with Δ9-THC
# C57BL/6J mice [2] = assay: 30-day C57BL/6J mouse model of Δ9-THC-induced endothelial dysfunction, oxidative stress and inflammation; settings: for endothelial function (wire myograph, thoracic aorta): 30 days, genistein = Δ9-THC plus genistein; for circulating levels of glutathione / plasma interleukins IL-6, IL-3 and IL-10: Δ9-THC alone; for circulating levels of glutathione: genistein = co-treatment; for plasma interleukins IL-6, IL-3 and IL-10: genistein = cotreatment
# From the text: Seven-week-old male C57BL/6J mice were obtained from Jackson Laboratory (Bar Harbor, ME, USA). […] Organs were collected, weighed, and fixed with 4% paraformaldehyde (PFA). The thoracic aortas (TAs) were surgically dissected out and cleaned from the surrounding connective tissue for all groups. The TAs were transferred to ice-cold Krebs'-Henseleit solution and cut into segments of 2 mm. The artery segments were mounted in wire-myograph chambers for isometric tension recordings (DanishMyo Technology [DMT]).The chambers contained Krebs'-Henseleit solution. All chambers were aerated with 95% 02/5% CO2, and the temperature was kept constant at 37° C. to mimic physiological conditions. After a manual stabilization and normalization procedure, the PowerLab4/25-Chart7 acquisition systems (AD Instruments Ltd) was used to record force and convert it into tension. The TA segments were pre-constricted using either […] 5HT serotonin (5HT) or U46619. A cumulative application of acetylcholine ([…]) was performed, and the induced vascular dilatations were measured. Subsequently, concentration-response relationship curves were established for each group of 3 mice. Time-matched dimethylsulfoxide (DMSO) application was performed in a separate chamber as the control for all experiments.
# hiPSC-ECs [3] = assay: monocyte adhesion to hiPSC-ECs; format: cell-based, human; settings: Δ9-THC alone; genistein = with Δ9-THC
# [4] = system: LDL receptor knock-out mice (B6.129S7-Ldlr^tm1Her/J); assay: atherosclerosis in LDL receptor knock-out mice on high-fat diet; format: in vivo, mouse; settings: for serum lipid profiles or blood pressure: 12 weeks high-fat diet, genistein = cotreatment with Δ9-THC; for CD68-positive area in the aortic root (macrophage recruitment) / plaque size (Oil Red O; aortic root cross-sections and en face thoracic aorta): 12 weeks, genistein = co-treatment with Δ9-THC
# Description: After 12 weeks, the mice were euthanized, and the atherosclerotic lesion area was examined by cross-sections of the aortic root and an en face analysis of the thoracic aorta. […] Macrophage recruitment in the aortic root was analyzed using aortic plaque stained with an anti-CD68 antibody.
# ApoE^−/− mice = assay: ApoE−/− partial carotid artery ligation (PCAL) atherosclerosis model; format: in vivo, mouse; settings: for plaque area (Oil Red O), ligated carotid artery: 10 days high-fat diet, genistein = cotreatment with Δ9-THC; for CD68-positive area / F4/80-positive area, ligated carotid artery: genistein = co-treatment with Δ9-THC
# C57BL/6J mice [5] = assay: neurobehavioral testing (Billy Martin tetrad); format: in vivo, mouse
# hiPSC-ECs [6] = assay: cytotoxicity in hiPSC-ECs
# [7] = system: human cardiac fibroblasts-ventricular (NHCF-V); assay: cytotoxicity in cardiac fibroblasts
# [8] = system: human endothelial cells (HUVECs and HCAECs); assay: cytotoxicity in human endothelial cells
# human endothelial cells = assay: inflammation and antioxidant gene expression in human endothelial cells
# CB1 [9] = target: T1, CB1 (Homo sapiens, UniProt P21554); assay: in vitro GTPase assay; format: biochemical
# CB1 [10] = target: T1, CB1; assay: CB1 radioligand binding assay
# Human subjects = assay: human study in subjects ingesting medicinal cannabinoids; format: in vivo; settings: 1 or 5 mg/Kg/day versus placebo
# [11] = target: G protein-coupled estrogen receptor (Homo sapiens, UniProt Q99527); settings: agonist; cited from earlier work
# CB1 [12] = target: T1, CB1; settings: reported as an agonist; cited from earlier work
# human CB2 = human CB2 (Homo sapiens, UniProt P34972); settings: reported as an agonist; cited from earlier work
# [13] = in vivo; cited from earlier work
# [14] = not told; cited from earlier work
# [15] = Yang et al. 2012; cited from earlier work
# [16] = Δ9-THC 20 mg/kg i.p., 60 min post-dosing
# T1 sequence (P21554 whole entry): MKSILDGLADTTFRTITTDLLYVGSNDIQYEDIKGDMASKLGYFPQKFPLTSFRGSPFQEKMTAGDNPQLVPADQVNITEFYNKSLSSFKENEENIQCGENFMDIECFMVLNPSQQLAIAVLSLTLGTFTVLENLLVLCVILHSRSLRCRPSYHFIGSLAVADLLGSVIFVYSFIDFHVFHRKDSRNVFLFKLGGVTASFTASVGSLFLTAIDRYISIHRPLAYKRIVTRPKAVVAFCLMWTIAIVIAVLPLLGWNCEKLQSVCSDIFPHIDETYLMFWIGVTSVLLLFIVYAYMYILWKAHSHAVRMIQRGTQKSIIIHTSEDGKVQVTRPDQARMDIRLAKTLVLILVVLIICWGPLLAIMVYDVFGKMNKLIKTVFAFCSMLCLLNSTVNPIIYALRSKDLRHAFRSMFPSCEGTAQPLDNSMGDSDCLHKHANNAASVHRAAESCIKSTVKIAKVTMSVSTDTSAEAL
# Sequence of human CB2 (P34972 whole entry): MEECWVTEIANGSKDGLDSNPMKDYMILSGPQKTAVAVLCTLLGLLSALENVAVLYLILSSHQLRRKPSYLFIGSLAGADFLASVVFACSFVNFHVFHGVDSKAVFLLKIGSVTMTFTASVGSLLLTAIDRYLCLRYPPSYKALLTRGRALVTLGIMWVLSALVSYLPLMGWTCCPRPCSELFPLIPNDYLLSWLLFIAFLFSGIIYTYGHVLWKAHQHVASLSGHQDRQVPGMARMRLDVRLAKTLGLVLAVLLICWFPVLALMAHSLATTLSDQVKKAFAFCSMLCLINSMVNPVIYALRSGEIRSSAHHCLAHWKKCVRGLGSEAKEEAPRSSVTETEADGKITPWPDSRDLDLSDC
# Sequence of G protein-coupled estrogen receptor (Q99527 whole entry): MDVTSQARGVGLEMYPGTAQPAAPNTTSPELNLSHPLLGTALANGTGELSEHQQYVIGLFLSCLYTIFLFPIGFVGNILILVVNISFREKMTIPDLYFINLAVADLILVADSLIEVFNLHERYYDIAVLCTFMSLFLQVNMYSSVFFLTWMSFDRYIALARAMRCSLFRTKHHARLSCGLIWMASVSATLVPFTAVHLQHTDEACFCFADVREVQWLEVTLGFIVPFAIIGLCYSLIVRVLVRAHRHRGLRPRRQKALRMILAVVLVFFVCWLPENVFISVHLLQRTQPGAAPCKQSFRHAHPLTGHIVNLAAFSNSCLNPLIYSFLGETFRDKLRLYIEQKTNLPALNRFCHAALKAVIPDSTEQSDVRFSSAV
SMILES,expression of proinflammatory cytokines and chemokines / inflammation-related genes (hiPSC-ECs [1]),mRNA expressions of inflammation induced by Δ9-THC in mouse thoracic artery tissues (C57BL/6J mice [2]; with Δ9-THC),TLR4 expression (hiPSC-ECs [1]),expression of ROS-related genes NOX1 and iNOS (hiPSC-ECs [1]),"mRNA expression of antioxidant-related genes (SOD1, SOD2, CAT, GPX1) (hiPSC-ECs [1])",monocyte adhesion to hiPSC-ECs (hiPSC-ECs [3]),"endothelial function (wire myograph, thoracic aorta) (C57BL/6J mice [2])",circulating levels of glutathione (C57BL/6J mice [2]),"plasma interleukins IL-6, IL-3 and IL-10 (C57BL/6J mice [2])",serum lipid profiles or blood pressure [4],CD68-positive area in the aortic root (macrophage recruitment) [4],plaque size (Oil Red O; aortic root cross-sections and en face thoracic aorta) [4],"plaque area (Oil Red O), ligated carotid artery (ApoE^−/− mice)",CD68-positive area (ApoE^−/− mice),"F4/80-positive area, ligated carotid artery (ApoE^−/− mice)",further results
Cc1c(C(=O)NN2CCS(=O)(=O)CC2)nn(-c2ccc(Cl)cc2Cl)c1-c1ccc(C#CCCC#N)cc1 [AM6545],reversed,–,–,–,–,–,–,–,–,–,–,–,–,–,–,–
Cc1c(C(=O)NN2CCCCC2)nn(-c2ccc(Cl)cc2Cl)c1-c1ccc(Cl)cc1 [rimonabant],–,ameliorated,–,–,–,–,–,–,–,–,–,–,–,–,–,–
"CCCCCc1cc(O)c2c(c1)OC(C)(C)[C@@H]1CCC(C)=C[C@@H]21 [Δ^9-THC, (6aR,10aR)-6,6,9-trimethyl-3-pentyl-6a,7,8,10a-tetrahydro-6H-benzo[c]chromen-1-ol]",increased,–,induced,upregulated,decreased,increased adhesion,induced endothelial dysfunction,decreased,elevated,Neither Δ^9-THC nor cotreatment with Δ^9-THC and genistein affected,significantly increased,significantly increased plaque size,increased,significantly increased,significantly increased,"I kappa B (IκB) (hiPSC-ECs [1]): inhibited; TNFα concentration in the cell culture medium (hiPSC-ECs [1]): increased; hydrogen peroxide (H2O2) levels (hiPSC-ECs [1]; immunofluorescence staining): increased; duration of Δ9-THC-induced expression of proinflammatory cytokines and chemokines after the initial exposure (hiPSC-ECs [1]; Δ9-THC 48 hours, then wash-out, no genistein): 8 to 10 days; plasma concentration of Δ9-THC (C57BL/6J mice [2]; intraperitoneal injection, LC-MS): ~100 ng/mL; analgesia (hot plate 55° C.) (C57BL/6J mice [5]; Δ9-THC 20 mg/kg i.p.): analgesia; hypothermia (rectal body temperature) (C57BL/6J mice [5]; [16]): hypothermia; mobility (open field activity chamber) (C57BL/6J mice [5]; [16]): decreased mobility; sedation (bar test) (C57BL/6J mice [5]; [16]): sedation; cytotoxicity (hiPSC-ECs [6]): induced cytotoxicity; cytotoxicity [7]: without any adverse effect; cytotoxicity [8]: induced cytotoxicity; antioxidant-related gene expression (human endothelial cells): reduced; expression of inflammation-related genes (human endothelial cells): induced"
"O=c1c(-c2ccc(O)cc2)coc2cc(O)cc(O)c12 [genistein, 5,7-dihydroxy-3-(4-hydroxyphenyl)-4H-1-benzopyran-4-one]",reversed,ameliorated,disrupted,salutatory effect,ameliorated,reversed,mitigated,ameliorated,significantly reduced,Neither Δ^9-THC nor cotreatment with Δ^9-THC and genistein affected,rescued,ameliorated plaque size,ameliorated plaque size,reduced,decreased,"mode of action against CB1 (CB1 [9]): neutral antagonist; IC50 (CB1 [10]): 150 nM; NF-κB phosphorylation (hiPSC-ECs [1]; genistein with Δ9-THC): attenuated; NF-κB phosphorylation and SOD expression in mouse serum (C57BL/6J mice [2]; with Δ9-THC): attenuated; oxidative stress-related gene expression (C57BL/6J mice [2]; with Δ9-THC): rescued; Δ9-THC neurobehavioral effects (C57BL/6J mice [5]; genistein 50 mg/kg p.o. in co-treatment with Δ9-THC 20 mg/kg i.p.): could not attenuate; tetrad effects (C57BL/6J mice [5]; genistein alone, 50 mg/kg p.o.): did not affect tetrad effects; incidence of adverse cardiovascular effects of cannabinoid ingestion (Human subjects): dose-related lower incidence; affinity [11]: 133 nM; IC50 (CB1 [12]): 150 nM; IC50 (human CB2): > 50000 nM; Ki (human CB2): > 50000 nM; bioavailability [13]: low bioavailability; cell wall permeability [14]: high cell wall permeability; blood-brain barrier (BBB) penetration [15]: poor blood-brain barrier (BBB) penetration"
